{"source": "ChEMBL document CHEMBL5046251", "about": "“Discovery of a Series of Pyrimidine Carboxamides as Inhibitors of Vanin-1” (J Med Chem, 2022)", "key": {"[1]": {"assay": "Plasma protein binding in human assessed as unbound fraction", "type": "ADME, cell-free"}, "[2]": {"assay": "Oral bioavailability in rat at 10 mg/kg measured upto 24 hrs by LC-MS/MS analysis", "type": "ADME, organism-based", "settings": "in vivo"}, "[3]": {"assay": "AUC in rat at 2 mg/kg, iv measured upto 24 hrs by LC-MS/MS analysis", "type": "ADME, organism-based", "set-up": "route intravenous, dose 2 mg/kg, time <=24", "settings": "in vivo"}, "[4]": {"assay": "Intrinsic clearance in human liver microsomes", "type": "ADME, Microsome"}, "[5]": {"assay": "Plasma protein binding in mouse assessed as unbound fraction", "type": "ADME, cell-free"}, "[6]": {"assay": "Volume of distribution in rat at 2 mg/kg, iv measured upto 24 hrs by LC-MS/MS analysis", "type": "ADME, organism-based", "settings": "in vivo"}, "[7]": {"assay": "Intrinsic clearance in human hepatocytes assessed per million cells", "type": "ADME, cell-based, Hepatocyte"}, "[8]": {"assay": "Intrinsic clearance in rat hepatocytes assessed per million cells", "type": "ADME, cell-based, Hepatocyte"}, "[9]": {"assay": "Oral bioavailability in beagle dog", "type": "ADME, organism-based, Canis lupus familiaris", "settings": "in vivo"}, "[10]": {"assay": "Intrinsic clearance in human hepatocytes assessed per million cells by relay assay method", "type": "ADME, cell-based, Hepatocyte"}, "[11]": {"assay": "AUC in rat at 10 mg/kg, po measured upto 24 hrs by LC-MS/MS analysis", "type": "ADME, organism-based", "set-up": "route oral, dose 10 mg/kg, time <=24", "settings": "in vivo"}, "[12]": {"assay": "Half life in rat at 2 mg/kg, iv measured upto 24 hrs by LC-MS/MS analysis", "settings": "in vivo"}, "[13]": {"assay": "Clearance in rat at 2 mg/kg, iv measured upto 24 hrs by LC-MS/MS analysis", "type": "ADME, organism-based", "settings": "in vivo"}, "[14]": {"assay": "Renal clearance in rat at 2 mg/kg, iv assessed glomerular filtration rate", "type": "ADME, organism-based", "settings": "in vivo"}, "Mus musculus [15]": {"tested_on": "Mus musculus", "assay": "Anti-colitis activity against DSS-induced BALB/c mouse model assessed as increase in body weight at 0.5 to 50 mg/kg, po, qd administered for 10 days", "type": "functional, organism-based", "settings": "dose 0.5-50 mg/kg, time 10.0 day"}, "Mus musculus [16]": {"tested_on": "Mus musculus", "assay": "Anti-colitis activity against DSS-induced BALB/c mouse model assessed as reduction in disease activity index at 0.5 to 50 mg/kg, po, qd administered for 10 days", "type": "functional, organism-based", "settings": "dose 0.5-50 mg/kg, time 10.0 day"}, "[17]": {"assay": "Inhibition of beagle dog vanin-1"}, "CYP2A4": {"tested_on": "CYP2A4", "assay": "Inhibition of CYP2A4 (unknown origin) at 3 uM relative to control", "type": "ADME", "settings": "human"}, "[18]": {"assay": "Plasma protein binding in Wistar han rat assessed as unbound fraction", "type": "ADME, cell-free"}, "[19]": {"assay": "Plasma protein binding in beagle dog assessed as unbound fraction", "type": "ADME, cell-free, Canis lupus familiaris"}, "[20]": {"assay": "Clearance in beagle dog by LC-MS/MS analysis", "type": "ADME, Canis lupus familiaris", "settings": "in vivo"}, "[21]": {"assay": "Volume of distribution at steady state in beagle dog by LC-MS/MS analysis", "type": "ADME, Canis lupus familiaris", "settings": "in vivo, read-out: Vdss"}, "[22]": {"assay": "Half life in beagle dog by LC-MS/MS analysis", "settings": "in vivo"}, "[23]": {"assay": "Renal clearance in beagle dog assessed as glomerular filtration rate", "type": "ADME, Canis lupus familiaris", "settings": "in vivo"}, "Mus musculus [24]": {"tested_on": "Mus musculus", "assay": "In vivo inhibition of vanin-1 in DSS-induced BALB/c mouse colitis model serum administered for 10 days", "type": "functional, organism-based", "settings": "dose 0.5-50 mg/kg, time 10.0 day"}, "[25]": {"assay": "Unbound drug concentration in serum of DSS-induced BALB/c mouse colitis model at 0.5 mg/kg administered for 10 days", "type": "ADME, organism-based", "settings": "in vivo, 240 h, time 10 day"}, "[26]": {"assay": "Unbound drug concentration in serum of DSS-induced BALB/c mouse colitis model at 1.5 mg/kg administered for 10 days", "type": "ADME, organism-based", "settings": "in vivo, 240 h, time 10 day"}, "[27]": {"assay": "Unbound drug concentration in serum of DSS-induced BALB/c mouse colitis model at 5 mg/kg administered for 10 days", "type": "ADME, organism-based", "settings": "in vivo, 240 h, time 10 day"}, "[28]": {"assay": "Unbound drug concentration in serum of DSS-induced BALB/c mouse colitis model at 50 mg/kg administered for 10 days", "type": "ADME, organism-based", "settings": "in vivo, 240 h, time 10 day"}}, "note": "Activity calls are given as the source filed them. No cut-off for these calls is given here.", "data": [{"smiles": "O=C(c1cnc(NCc2cnccn2)nc1)N1CCC2(CCOCC2)C1", "note": "[PFI-653]", "values": [{"measurement": "fraction unbound", "setting": "[1]", "result": 0.812}, {"measurement": "bioavailability", "setting": "[2]", "result": 96, "unit": "%"}, {"measurement": "AUC at 24 h", "setting": "[3]", "result": 1790, "unit": "ng·h/mL"}, {"measurement": "Intrinsic clearance", "setting": "[4]", "result": "< 8", "unit": "µL/min/mg"}, {"measurement": "fraction unbound", "setting": "[5]", "result": 0.941}, {"measurement": "Vd", "setting": "[6]", "result": 0.84, "unit": "L/kg"}, {"measurement": "CLint", "setting": "[7]", "result": "< 3", "unit": "µL/min/1e6 cells"}, {"measurement": "CLint", "setting": "[8]", "result": "< 3", "unit": "µL/min/1e6 cells"}, {"measurement": "bioavailability", "setting": "[9]", "result": 100, "unit": "%"}, {"measurement": "CLint", "setting": "[10]", "result": "< 0.16", "unit": "µL/min/1e6 cells"}, {"measurement": "AUC at 24 h", "setting": "[11]", "result": 8540, "unit": "ng·h/mL"}, {"measurement": "half-life at 24 h", "setting": "[12]", "result": 1, "unit": "h"}, {"measurement": "clearance", "setting": "[13]", "result": 19, "unit": "mL/min/kg"}, {"measurement": "CL", "setting": "[14]", "result": 55, "unit": "%"}, {"measurement": "Activity", "setting": "Mus musculus [15]", "result": "Active"}, {"measurement": "Activity", "setting": "Mus musculus [16]", "result": "Active"}, {"measurement": "IC50", "setting": "[17]", "result": 0.9, "unit": "nM"}, {"measurement": "inhibition at 3 µM", "setting": "CYP2A4", "result": "< 5", "unit": "%"}, {"measurement": "fraction unbound", "setting": "[18]", "result": 0.812}, {"measurement": "fraction unbound", "setting": "[19]", "result": 0.826}, {"measurement": "clearance", "setting": "[20]", "result": 3.5, "unit": "mL/min/kg"}, {"measurement": "Vd", "setting": "[21]", "result": 0.94, "unit": "L/kg"}, {"measurement": "half-life", "setting": "[22]", "result": 3.4, "unit": "h"}, {"measurement": "CL", "setting": "[23]", "result": 22, "unit": "%"}, {"measurement": "Activity", "setting": "Mus musculus [24]", "result": "Dose-Dependent Effect"}, {"measurement": "Drug uptake(free)", "setting": "[25]", "result": 1, "unit": "nM"}, {"measurement": "Drug uptake(free)", "setting": "[26]", "result": 61, "unit": "nM"}, {"measurement": "Drug uptake(free)", "setting": "[27]", "result": 202, "unit": "nM"}, {"measurement": "Drug uptake(free)", "setting": "[28]", "result": 773, "unit": "nM"}]}]}
